This series can be described thus: Human HepG2 cell viability assay in 384 well format. The class given is toxicity, cell-based. Set-up: dose 125 nL, time 70.5 hour; concentration not given beside the values. The conditions noted are these: HepG2 cells, read-out: Inhibition.

Structures are written as SMILES.

Consider `CC1CN(C)CCN1C(=O)c1ccn(-c2ccccc2)n1` (stereo unspecified), for which the cytotoxicity at 70.5 h worked out at 17.4%.

With `CC1CN(C)CCN1C(=O)c1cnn(-c2cccc(Cl)c2)c1` (stereo unspecified), the cytotoxicity at 70.5 h is -9.03%. Turning to `Cc1n[nH]c(C)c1NC(=O)CN1CCCC1c1noc(C(C)C)n1` (stereo unspecified), the cytotoxicity at 70.5 h was found to be 15.2%.

On to `O=c1oc(-c2ccc(F)cc2)nn1CN1CCCCC1`, for which the cytotoxicity at 70.5 h is -18.4%. To `Cc1nc(-c2ccccc2)n(CC(=O)NC2CCCCC2)n1` belongs -14.1%; to `Cc1noc(C(C)C)c1C(=O)NCc1ccc(N(C)C)c(F)c1`, -9.82%. The same measure for `Cc1cc(CN2CCN(c3ccc4nncn4n3)C(C)C2)on1` (stereo unspecified): 20%; for `CCOc1ccc2cc(C(=O)N3CCn4c(CC)nnc4C3)[nH]c2c1`: -8.2%.

As for `Cc1nc(-c2ccccc2C)n(CC(=O)NC2CCCC2)n1`, the cytotoxicity at 70.5 h was 19%. Take `CCc1nnc2n1CCN(C(=O)c1cc3ccc(C)cc3[nH]1)C2`: the cytotoxicity at 70.5 h is -12.2%. The same measure for `CCc1nnc2n1CCN(C(=O)c1cc3c(F)cccc3[nH]1)C2`: -6.74%; for `CN1CCN(C2CCN(CCOc3ccccc3F)CC2)C1=O`: -11.6%. The same measure for `CCOc1ccc(CC(=O)N2CCCC(n3nc(C)nc3C)C2)cc1` (stereo unspecified): -5.27%.

In the case of `COc1c(C2CCCN2C(=O)c2cscn2)c(C)nn1C` (stereo unspecified), the cytotoxicity at 70.5 h stood at 18.5%. The same measure for `Cc1nc(C)n(C2CCCN(C(=O)COc3ccccc3)C2)n1` (stereo unspecified): -8.86%; for `Cc1nc(C)n(C2CCCN(C(=O)CCOc3cccc(F)c3)C2)n1` (stereo unspecified): -6.19%.

With `Cc1ncc(CN2CCN(c3ccc4nncn4n3)C(C)C2)s1` (stereo unspecified), the cytotoxicity at 70.5 h was -11.1%. As for `COc1cccc(S(=O)(=O)NC(=O)CCC2CCCC2)c1`, the cytotoxicity at 70.5 h is -8.64%. The same measure for `COc1cccc(S(=O)(=O)NC(=O)COC2CCCCC2)c1`: 0.508%. With `COCCc1noc(CN2CCCC2Cn2cccn2)n1` (stereo unspecified), the cytotoxicity at 70.5 h is -9.31%.

As for `CCc1csc(C2CCCN(C(=O)c3ccc(=O)n(CC)n3)C2)n1` (stereo unspecified), the cytotoxicity at 70.5 h was -5.74%. To `COCCc1noc(CN2CCCCC2Cn2cccn2)n1` (stereo unspecified) belongs -11.6%; to `CCN1N=C(C(=O)N2CCCC(c3nc(C)cs3)C2)CCC1=O` (stereo unspecified), -2.03%.

Turning to `CC(NC(=O)NCCNc1ccccn1)c1cccs1` (stereo unspecified), the cytotoxicity at 70.5 h is -1.83%. To `CC(C)C(NC(=O)Nc1ccccn1)c1cccs1` (stereo unspecified) belongs 28.6%; to `O=C1CN(c2ccc(CNC(=O)NCCO)cc2)CCN1`, -5.73%. The same measure for `CC1CCN(CCNC(=O)c2ccn(-c3ccccc3)n2)CC1`: -6.14%; for `COc1ccc(-n2ccc(C(=O)NCCN3CCC(C)CC3)n2)cc1`: -5.24%. The same measure for `COc1ccc(-n2ccc(C(=O)NCCN3CCCCC3)n2)cc1`: -4.18%; for `Cn1ccc(CN2CCC(OCc3ccccc3)CC2)cc1=O`: 21.5%. As for `CN(C)C(=O)c1cccc(CN2CCOC(Cn3cccn3)C2)c1` (stereo unspecified), the cytotoxicity at 70.5 h was -12.9%. The same measure for `Cc1cnn(CC2CN(Cc3cccc(C(N)=O)c3)CCO2)c1` (stereo unspecified): -9.19%.

`Cc1cnn(CC2CN(Cc3ccc(C(N)=O)cc3)CCO2)c1` (stereo unspecified): the cytotoxicity at 70.5 h was -7.11%. For the molecule `Cc1cnn(CC2CN(Cc3cccc(OC(C)C)c3)CCO2)c1` (stereo unspecified), the cytotoxicity at 70.5 h is -5.62%. To `Cc1cnn(CC2CN(Cc3cccnc3)CCO2)c1` (stereo unspecified) belongs -6.35%. For `Cc1cc(C[S+]([O-])CC(=O)NCc2ccccc2)no1` (stereo unspecified), the cytotoxicity at 70.5 h is -5.28%.

Consider `Cc1ccc(-c2nc(CNC3CCc4ncnn4C3)co2)cc1` (stereo unspecified), for which the cytotoxicity at 70.5 h was -9.15%. The same measure for `O=C(Cc1cccc(O)c1)NCCCNC(=O)c1cccc(F)c1`: -5.97%; for `CC(C)c1nc(CN2CCCC2Cn2cccn2)no1` (stereo unspecified): -2.93%; for `CCc1csc(C2CCCN(C(=O)c3ccco3)C2)n1` (stereo unspecified): 17.1%.

Turning to `COc1ccc(CNC(C)Cn2cccn2)c(OC)c1OC` (stereo unspecified), the cytotoxicity at 70.5 h is -7.21%.

These data come from ChEMBL document CHEMBL3507680, “University of Dundee, Gates Library screen for HepG2 cell viability”.
